Results on one compound are retold here after paper PMC12847094, “Casticin inhibits AKR1C3 and enhances abiraterone efficacy in castration-resistant prostate cancer” (Journal of Natural Medicines, 2025).

The target in the assay is T1, aldo-keto reductase 1C3 (AKR1C3) (Homo sapiens, UniProt P42330).
T1 construct: recombinant hAKR1C3 expressed in E. coli Rosetta (DE3), pET21b
Kind of assay: NADPH oxidation at […] nm with […],10-phenanthrenequinone, recombinant enzyme; also coumberone reduction in […]1 cells. It is filed as biochemical.

Each structure is given as a SMILES string.

T1 sequence (P42330 whole entry): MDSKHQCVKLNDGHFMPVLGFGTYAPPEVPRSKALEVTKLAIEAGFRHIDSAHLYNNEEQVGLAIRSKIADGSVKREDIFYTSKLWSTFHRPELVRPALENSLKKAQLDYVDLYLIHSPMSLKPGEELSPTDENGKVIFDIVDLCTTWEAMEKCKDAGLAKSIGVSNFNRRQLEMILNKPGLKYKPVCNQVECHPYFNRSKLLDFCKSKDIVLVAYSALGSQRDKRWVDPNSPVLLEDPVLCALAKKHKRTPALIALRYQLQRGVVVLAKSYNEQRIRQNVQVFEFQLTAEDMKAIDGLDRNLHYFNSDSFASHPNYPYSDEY

What is called IC50 is the concentration that inhibits the measured activity by half. Take `COc1ccc(-c2oc3cc(OC)c(OC)c(O)c3c(=O)c2OC)cc1O` [CAS, casticin]: the 50% inhibitory concentration (IC50) was determined as 5.99 µM.
